Assay results reported in patent US9168295B2, “Vaccine peptide combinations” (Circassia Limited, priority 2007, dated 2015).
“Also recorded” adds a separate entry of the source. Like-named read-outs stand apart in the source and are kept apart here. No end group written: not given here.

Test system: peripheral blood basophils (PBMC) from cat allergic subjects
Test: Histamine release assay and histamine ELISA
Assay type: cell-based, human
Conditions: for frequency of histamine release, in words: comparison among individual peptides
Protocol: Histamine release from fresh peripheral whole blood from cat allergic subjects was evaluated. Peripheral blood basophils were used as a surrogate for tissue mast cells which were not practical to assay. Blood was incubated in vitro with 9 individual peptides from the sequence of the major cat allergen Fel d 1 (SEQ ID NOS: 1, 2, 3, 4, 5, 6, 7, 11 and 12). These peptides were selected as potential T cell epitopes following peptide-MHC binding assays as explained in Example 1. Additionally, responses to a preferred mixtures of a mixture of 7 peptides identified in Example 1 were analysed. The tested preferred mixture of 7 peptides consisted of the peptides of SEQ ID NOS: 1 to 7. Histamine release in response to whole cat dander allergen extract acted as a positive control.
Peripheral blood mononuclear cells (PBMC) were isolated from the heparinised blood sample obtained from the subject. PBMC's were isolated by Ficoll-Hypaque density gradient separation. Once isolated, the cells were used in the cell proliferation assay, histamine release and ELISA assay and the cytokine release assay.
Assays were performed on PBMC (which contain basophils). Each peptide and combinations of peptides was compared with whole allergen molecules in a histamine release assay. Histamine concentrations were measured by ELISA.
The assay required 3×10^6 PBMC's per subject. The assay was performed using the Immunotech Histamine Release Immunoassay kit according to the manufacturer's instructions. Following the histamine release assay, acylated samples were tested by histamine ELISA. The histamine ELISA used 50 μl of the 100 μl acylated sample generated by the histamine release assay. The remaining 50 μl of sample was retained, by freezing at −20° C. until the data analysis section of the ELISA has been completed. Once the results had been analysed and the ELISA performed in a satisfactory manner, the samples were discarded.
Peptides were assayed for their ability to induce histamine release over a 5 log10 range (10 μg/ml to 1 ng/ml). The concentration range assayed was selected based on theoretical in vivo doses of peptide that may be achieved during therapy. For example, a 10 μg dose of peptide entering a blood volume of 5 litres, would result in a blood concentration of 2 ng/ml (2×10^−6 mg/ml), at the lower end of the histamine release assay dose range. Whole cat dander extract (C.B.F. LETI) was used as a positive control for release over a slightly higher concentration range (100 μg to 10 ng/ml). Single measurements (i.e. not duplicate or triplicate) were performed for each dilution. One duplicate blood sample was assayed for spontaneous histamine release and the mean value of these samples was subtracted from all peptide/allergen results.
After completion of the histamine ELISA, individual histamine levels were determined by interpolation for the standard curve generated in the ELISA assay. Results from samples were adjusted to allow for any dilution of the samples.
Histamine release was considered positive if (a) the highest concentration of peptide alone induced release of 10% or more of the total release value or (b) if two consecutive values were 10% or more of the total release. […] Of these, 6/81 (7.4%) had not positive control release to whole cat allergen extract.

Compound | number of individuals in whom histamine release was detected (of 81 subjects) | other results
CC(C)C[C@H](NC(=O)[C@@H](NC(=O)[C@@H](NC(=O)[C@@H]1CCCN1C(=O)[C@H](CC(C)C)NC(=O)[C@H](C)NC(=O)[C@H](CCCCN)NC(=O)[C@H](Cc1ccc(O)cc1)NC(=O)[C@H](CCC(N)=O)NC(=O)[C@H](C)NC(=O)[C@@H](NC(=O)[C@H](CCC(N)=O)NC(=O)[C@@H](N)CCC(=O)O)C(C)C)C(C)C)C(C)C)C(=O)N[C@@H](CCC(=O)O)C(=O)N[C@@H](CC(N)=O)C(=O)N[C@@H](C)C(=O)O [MLA03, EQVAQYKALPVVLENA] | 6 | 
AVQNTVEDLKLNTLGR [MLA16, AVQNTVEDLKLNTLGR] | 11 | frequency of histamine release, in words: most commonly released histamine; also recorded: the most frequent basophil histamine release responses; also recorded: most frequently associated with histamine release; also recorded: caused most frequent release; also recorded: gave the highest histamine release
ISSSKDCMGEAVQNTV [MLA15, ISSSKDCMGEAVQNTV] | 7 | frequency of histamine release, in words: most commonly released histamine; also recorded: the most frequent basophil histamine release responses; also recorded: gave the highest histamine release; Comments on histamine release (individual subject): MLA15 JUST ABOVE THE 10% CUT OFF
KALPVVLENARILKNCV [MLA04, KALPVVLENARILKNCV] | 6 | 
KENALSVLDKIYTSPL [MLA07] |  | number of individuals in whom histamine release was detected: 6
RILKNCVDAKMTEEDKE [MLA05, RILKNCVDAKMTEEDKE] |  | number of individuals in whom histamine release was detected: 1
SRVLDGLVMTTISSSK [MLA14, SRVLDGLVMTTISSSK] | 2 | 
TAMKKIQDCYVENGLI [MLA12, TAMKKIQDCYVENGLI] | 6 | 
